Results as given in PMC6132577, “Methyl group reorientation under ligand binding probed by pseudocontact shifts” (Journal of Biomolecular Nmr, 2018).
Where two headings read alike, the source gives them in different places.

Legend:
WT ntd-HSP90 = target: T1, WT ntd-HSP90 (Homo sapiens, UniProt P07900); assay: NMR titration (15N-labelled protein, amide groups) fitted with TITAN, 1:1 binding model; conditions: four amide protons, range of values from repeated global fits, 298 K, pH 7.7
T1 construct: made in house
Method: Ntd-HSP90 in 50 mM Tris-HCl and 50 mM NaCl buffer, pH 7.7, was titrated with 4-(2-Fluorophenyl)-2-pyrimidinamine, 1, (Fig. 1), a 189 Da known ligand of ntd-HSP90 that was kindly provided by AstraZeneca (Göteborg, Sweden). Titrations were performed with three ntd-HSP90 mutants, S50C/D54C, A101C/N105C and T149C/I187C tagged with Lu^3+-CLaNP-5 or Yb^3+-CLaNP-5. The concentrations of S50C/D54C, A101C/N105C T149C/I187C were 20, 103 and 65 µM, respectively, for both diamagnetic and paramagnetic forms of the protein. Concentrations (µM) of 1 for titrations with S50C/D54C, A101C/N105C and T149C/I187C were [0, 39, 59, 88, 132, 198, 296, 444, 667, 1000], [0, 20, 40, 121, 364, 1111] and [0, 40, 89, 200, 442, 665, 1008, 1897], respectively. […] Average CSP were calculated as (ΔH^2 + (ΔC/10)^2)^0.5 for methyl groups and (ΔH^2 + (ΔN/6)^2)^0.5 for amides. PCS were measured using ^1H and for calculations the geometrical average of the proton coordinates in methyl groups were used.
The dissociation constant KD, as well as the dissociation rate constant (kOFF) were calculated with TITAN software (Waudby et al. [2016]) using a 1:1 binding model (A + B ⇆ A − B). […] The WT KD was calculated using a titration performed on the ^15N labelled protein, on the basis of four amide protons (Table S1). […]

[1] = target: T2, ntd-HSP90 mutant A101C/N105C tagged with CLaNP-5 (Homo sapiens, UniProt P07900, A101C/N105C); assay: NMR methyl 13C-1H HSQC titration fitted with TITAN, 1:1 binding model; conditions: mutant 101C/105C
T2 construct: Three double cysteine mutants of the ntd-HSP90 were designed on the surface of the protein; CLaNP-5 (chemical lanthanoid chelate with Lu3+ or Yb3+, attached to the two engineered Cys); made in house
Method: (§1) Three double cysteine mutants of the ntd-HSP90 were designed on the surface of the protein, S50C/D54C, A101C/N105C and T149C/I187C (Lescanne et al. [2017]). […] The protein was produced labelled with Leu-δ1-δ2/Val-γ1-γ2-[^13CH3] and purified and tagged with CLaNP5 according to a published protocol (Lescanne et al. [2017]). CLaNP-5 was synthesized as described before (Keizers et al. [2007], [2008]).
(§2) Ntd-HSP90 in 50 mM Tris-HCl and 50 mM NaCl buffer, pH 7.7, was titrated with 4-(2-Fluorophenyl)-2-pyrimidinamine, 1, (Fig. 1), a 189 Da known ligand of ntd-HSP90 that was kindly provided by AstraZeneca (Göteborg, Sweden). Titrations were performed with three ntd-HSP90 mutants, S50C/D54C, A101C/N105C and T149C/I187C tagged with Lu^3+-CLaNP-5 or Yb^3+-CLaNP-5. The concentrations of S50C/D54C, A101C/N105C T149C/I187C were 20, 103 and 65 µM, respectively, for both diamagnetic and paramagnetic forms of the protein. Concentrations (µM) of 1 for titrations with S50C/D54C, A101C/N105C and T149C/I187C were [0, 39, 59, 88, 132, 198, 296, 444, 667, 1000], [0, 20, 40, 121, 364, 1111] and [0, 40, 89, 200, 442, 665, 1008, 1897], respectively. The NMR sample volume was 595 µL for all samples, and dilution was neglected, because the biggest volume of ligand solution added was < 5 µL. ^13C-^1H HSQC (Palmer et al. [1991]; Kay et al. [1992]; Schleucher et al. [1994]) spectra were acquired at each titration point, on a Bruker Avance III 800 MHz spectrometer, equipped with a cryogenically cooled TXI-probe head, operating at 298 K. Spectra were processed with nmrpipe (Delaglio et al. [1995]) using the exponential EM apodization function for analysis with TITAN (Waudby et al. [2016]). A similar titration was performed with WT ntd-HSP90 observing the amide groups. Average CSP were calculated as (ΔH^2 + (ΔC/10)^2)^0.5 for methyl groups and (ΔH^2 + (ΔN/6)^2)^0.5 for amides. PCS were measured using ^1H and for calculations the geometrical average of the proton coordinates in methyl groups were used.
(§3) The dissociation constant KD, as well as the dissociation rate constant (kOFF) were calculated with TITAN software (Waudby et al. [2016]) using a 1:1 binding model (A + B ⇆ A − B). TITAN fits both the equilibrium constant (KD) and the dissociation rate constant (kOFF) on the basis of the CSP and line broadening. A global fit of the resonances of five methyl groups (Table S1) was performed and then one at the time was taken out and the fit repeated. The WT KD was calculated using a titration performed on the ^15N labelled protein, on the basis of four amide protons (Table S1). The ranges of values obtained in this way are reported in Table 1 and provide a more realistic error range than the fit error. […] For these two mutants, a 50 µM variation of the KD results in a change of the extrapolated CSP of 0.01 ppm at most, half the error used for the further calculations. For mutant 149C/187C a KD of 50 µM was used to extrapolate the CSP.

[2] = target: T3, ntd-HSP90 mutant S50C/D54C tagged with CLaNP-5 (Homo sapiens, UniProt P07900, D54C/S50C); assay: as above; conditions: mutant 50C/54C
T3 construct: Three double cysteine mutants of the ntd-HSP90 were designed on the surface of the protein; CLaNP-5 (chemical lanthanoid chelate with Lu3+ or Yb3+, attached to the two engineered Cys); made in house
Method: as §1, §2, §3

[3] = target: T4, ntd-HSP90 mutant T149C/I187C tagged with CLaNP-5 (Homo sapiens, UniProt P07900, I187C/T149C); assay: as above; conditions: mutant 149C/187C
T4 construct: Three double cysteine mutants of the ntd-HSP90 were designed on the surface of the protein; CLaNP-5 (chemical lanthanoid chelate with Lu3+ or Yb3+, attached to the two engineered Cys); made in house
Method: as §1, §2, §3

[4] = CLaNP-5 tagged, five methyl groups, range of values from repeated global fits, 298 K, pH 7.7
[5] = CLaNP-5 tagged, five methyl groups, range of values from repeated global fits, 298 K, pH 7.7, read-out: KD
[6] = single value used to extrapolate CSP, read-out: KD used for the calculation of the 100% bound state CSP

Structure (SMILES): Nc1nccc(-c2ccccc2F)n1 [compound 1, 4-(2-Fluorophenyl)-2-pyrimidinamine]
- Kd (WT ntd-HSP90): 160 to 220 µM
- koff (WT ntd-HSP90): 1400 to 1800 s⁻¹
- koff [1, 4]: 1080 to 1300 s⁻¹
- Kd [1, 5]: 140 to 171 µM
- Kd [1, 6]: 150 µM
- koff [2, 4]: 1500 to 2300 s⁻¹
- Kd [2, 5]: 195 to 238 µM
- Kd [2, 6]: 200 µM
- koff [3, 4]: 1300 to 1900 s⁻¹
- Kd [3, 5]: 41 to 45 µM
- Kd ([3]; single value used to extrapolate CSP, read-out: KD used to extrapolate the CSP): 50 µM
